Where two headings read alike, the source gives them in different places.
Tested on: Brown Stink Bug (Euschistus heros)
Test: Action on Brown Stink Bug (Euschistus heros) on sprayed soybean seedlings
Assay type: in vivo
Details: for mortality at 1 ppm: 1 ppm a.i.; for mortality at 10 ppm: 10 ppm a.i.
Procedure: Action on Brown Stink Bug (Euschistus heros)
The active compound is dissolved at the desired concentration in a mixture of 1:1 (vol:vol) distilled water: acetone.
Soybean seedlings of Intacta® and BMX-Potencia with one pair of true leaves were sprayed with 2 ml solution using an airbrush. After dry, the plants in small pots were placed inside a transparent plastic cage and infested with 10 adults adult stage individuals. Treated cups were kept at about 25° C. Percent mortality was recorded after 3 and 7 days after application.

[1] = 72 h, BMX-POTENCIA soybean seedlings, 3 days after application, adults, read-out: mortality 3 DAA
[2] = 72 h, INTACTA soybean seedlings, 3 days after application, adults, read-out: mortality 3 DAA
[3] = 168 h, BMX-POTENCIA soybean seedlings, 7 days after application, adults, read-out: mortality 7 DAA
[4] = 168 h, BMX-POTENCIA soybean seedlings, 7 days after application, corrected according to Abbott, read-out: mortality (Abbott %) 7 DAA
[5] = 168 h, INTACTA soybean seedlings, 7 days after application, adults, read-out: mortality 7 DAA
[6] = 168 h, INTACTA soybean seedlings, 7 days after application, corrected according to Abbott, read-out: mortality (Abbott %) 7 DAA

Structure (SMILES): CCN1OC[C@@H](NC(=O)c2ccc(C3=NOC(c4cc(Cl)cc(Cl)c4)(C(F)(F)F)C3)cc2C)C1=O (stereo partly drawn) [Compound I.1]
- mortality at 1 ppm [1]: 7.5%
- mortality at 10 ppm [1]: 17.5%
- mortality at 1 ppm [2]: 12.5%
- mortality at 10 ppm [2]: 17.5%
- mortality at 1 ppm [3]: 50%
- mortality at 1 ppm [4]: 42.9%
- mortality at 10 ppm [3]: 82.5%
- mortality at 10 ppm [4]: 80%
- mortality at 1 ppm [5]: 57.5%
- mortality at 1 ppm [6]: 50%
- mortality at 10 ppm [5]: 85%
- mortality at 10 ppm [6]: 82.4%
